Drawing on ChEMBL document CHEMBL4265934 (Eur J Med Chem, 2018), this text covers Activity, IC50 and inhibition for 23 molecules.

Activity calls are given as the source filed them. The calls are words filed in the database; no cut-off is given here.

The target in data set [1] is T1, Phosphatidylinositol 4,5-bisphosphate 3-kinase catalytic subunit delta isoform (Homo sapiens) (UniProt O00329).
T1 sequence (whole entry): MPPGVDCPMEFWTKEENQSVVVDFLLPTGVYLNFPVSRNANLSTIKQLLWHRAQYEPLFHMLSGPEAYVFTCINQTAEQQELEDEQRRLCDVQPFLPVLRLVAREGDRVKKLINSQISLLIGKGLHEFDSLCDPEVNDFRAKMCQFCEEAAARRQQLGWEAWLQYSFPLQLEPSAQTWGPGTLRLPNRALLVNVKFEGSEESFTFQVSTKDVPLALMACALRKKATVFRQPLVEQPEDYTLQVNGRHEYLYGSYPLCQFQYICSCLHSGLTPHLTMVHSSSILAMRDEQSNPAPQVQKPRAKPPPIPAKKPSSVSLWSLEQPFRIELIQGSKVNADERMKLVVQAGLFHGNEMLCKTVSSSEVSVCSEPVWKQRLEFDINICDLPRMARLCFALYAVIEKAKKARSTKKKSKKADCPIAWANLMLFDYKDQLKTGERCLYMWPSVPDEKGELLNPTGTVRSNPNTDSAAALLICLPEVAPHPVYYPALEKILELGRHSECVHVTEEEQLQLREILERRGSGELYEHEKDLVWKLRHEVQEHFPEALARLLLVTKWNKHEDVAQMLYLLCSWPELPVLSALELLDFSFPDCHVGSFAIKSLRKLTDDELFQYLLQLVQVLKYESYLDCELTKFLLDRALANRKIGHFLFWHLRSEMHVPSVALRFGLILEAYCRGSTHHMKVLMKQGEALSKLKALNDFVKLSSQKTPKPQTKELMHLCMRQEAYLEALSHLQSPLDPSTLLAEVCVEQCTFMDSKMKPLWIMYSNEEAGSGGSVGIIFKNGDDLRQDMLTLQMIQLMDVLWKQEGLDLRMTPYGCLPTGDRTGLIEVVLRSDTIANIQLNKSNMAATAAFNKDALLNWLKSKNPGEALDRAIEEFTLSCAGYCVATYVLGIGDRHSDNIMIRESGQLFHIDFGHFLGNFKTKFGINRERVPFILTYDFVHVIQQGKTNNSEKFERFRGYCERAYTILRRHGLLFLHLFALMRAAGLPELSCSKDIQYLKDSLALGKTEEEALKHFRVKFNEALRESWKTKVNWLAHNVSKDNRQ
The data set is described as follows: Inhibition of PI3Kdelta in human basophils assessed as reduction in IgE-induced degranulation by measuring CD63 expression level at 100 uM by flow cast assay relative to control. Further details: scale not given: the % may be the effect or the level left.

For data set [2], the target named is T1, Phosphatidylinositol 4,5-bisphosphate 3-kinase catalytic subunit delta isoform (Homo sapiens). The data set is described as follows: Inhibition of PI3Kdelta in human basophils assessed as reduction in IgE-induced degranulation by measuring CD203c expression level at 100 uM by fluorescence assay relative to control. Further details: scale not given: the % may be the effect or the level left.

For data set [3], the system named is Mus musculus. The data set is described as follows: Anti-asthmatic activity in mouse model of ovalbumin-induced asthma assessed as decrease in methacholine-induced lung resistance at 10 mg/kg, ip daily by plethysmographic method. The format is functional, organism-based.
For data set [4], the system named is Mus musculus. Description: Anti-asthmatic activity in mouse model of ovalbumin-induced asthma assessed as decrease in methacholine-induced lung resistance at 10 mg/kg aerosolized daily by plethysmographic method. It is filed as functional, organism-based.
In data set [5] the test system is Mus musculus. The data set is described as follows: Anti-inflammatory activity in mouse model of ovalbumin-induced asthma assessed as decrease in total leukocytic infilterate in BAL at 10 mg/kg aerosolized daily. The format is functional, organism-based.
Data set [6] concerns Mus musculus. The data set is described as follows: Protection against DNFB-induced atopic dermatitis in mouse assessed as reduction in ear thickness administered topically measured up to 4 days post DNFB treatment. It is filed as functional, organism-based.
The target of data set [7] is PI3-kinase p110-alpha/p85-alpha (Homo sapiens, UniProt P42336). Description: Inhibition of PI3KCalpha/PIK3R1 (unknown origin). The format is protein-complex assay.
In the next data set the target is PI3K p110 beta/p85 alpha (Homo sapiens, UniProt P42338). Description: Inhibition of PI3KCbeta/PIK3R1 (unknown origin). The format is protein-complex assay.
The target of data set [8] is PI3-kinase p110-delta/p85-alpha (Homo sapiens, UniProt O00329). The data set is described as follows: Inhibition of PI3KCdelta/PIK3R1 (unknown origin). It is filed as protein-complex assay.
Data set [9] has as its target Phosphatidylinositol 4,5-bisphosphate 3-kinase catalytic subunit gamma isoform (Homo sapiens, UniProt P48736). The data set is described as follows: Inhibition of PI3KCgamma (unknown origin).
The test system of data set [10] is Mus musculus. The data set is described as follows: Anti-asthmatic activity in mouse model of ovalbumin-induced asthma assessed as decrease in methacholine-induced lung resistance at 90 mg/kg, ip daily by plethysmographic method. It is filed as functional, organism-based.
Data set [11] relates to Mus musculus. The data set is described as follows: Anti-asthmatic activity in mouse model of ovalbumin-induced asthma assessed as decrease in methacholine-induced lung resistance at 90 mg/kg aerosolized daily by plethysmographic method. The format is functional, organism-based.
Data set [12] relates to Mus musculus. Description: Anti-inflammatory activity in mouse model of ovalbumin-induced asthma assessed as decrease in total leukocytic infilterate in BAL administered ip daily. It is filed as functional, organism-based.
Data set [13] deals with Mus musculus. The data set is described as follows: Anti-inflammatory activity in mouse model of ovalbumin-induced asthma assessed as decrease in total leukocytic infilterate in lungs administered ip daily. It is filed as functional, organism-based.
Data set [14] deals with Mus musculus. Description: Anti-inflammatory activity in mouse model of ovalbumin-induced asthma assessed as decrease in eosinophilic infilteration administered ip daily. It is filed as functional, organism-based.
The test system of data set [15] is Mus musculus. Description: Anti-inflammatory activity in mouse model of ovalbumin-induced asthma assessed as decrease in total leukocytic infilterate in BAL at 90 mg/kg aerosolized daily. The format is functional, organism-based.
The subject of data set [16] is Mus musculus. The data set is described as follows: Anti-inflammatory activity in mouse model of ovalbumin-induced asthma assessed as decrease in eosinophilic infilteration at 90 mg/kg aerosolized daily. The format is functional, organism-based.
Data set [17] has as its system Mus musculus. The data set is described as follows: Anti-inflammatory activity in mouse model of ovalbumin-induced asthma assessed as decrease in neutrophilic infilteration at 90 mg/kg aerosolized daily. The format is functional, organism-based.
For data set [18], the system named is Mus musculus. Description: Anti-inflammatory activity in mouse model of ovalbumin-induced asthma assessed as decrease in macrophage infilteration at 90 mg/kg aerosolized daily. The format is functional, organism-based.
Data set [19] deals with Mus musculus. The data set is described as follows: Protection against DNFB-induced atopic dermatitis in mouse assessed as reduction in ear thickness at 90 mg/kg, ip measured up to 3 days post DNFB treatment. It is filed as functional, organism-based.
Data set [20] relates to Mus musculus. Description: Toxicity in mouse up to 90 mg/kg, ip or iv administered 3 to 5 times/week up to 4 weeks. The format is organism-based. As to conditions: in vivo, 672 h.
Data set [21] deals with T1, Phosphatidylinositol 4,5-bisphosphate 3-kinase catalytic subunit delta isoform (Homo sapiens). The data set is described as follows: Inhibition of PI3Kdelta in human basophils assessed as reduction in IgE-induced degranulation by measuring decrease in CD63 expression level by flow cast assay.
The target is the same in data set [22]. The data set is described as follows: Inhibition of PI3Kdelta in human basophils assessed as reduction in IgE-induced degranulation by decrease in measuring CD203c expression level by fluorescence assay.

Sequence of Phosphatidylinositol 4,5-bisphosphate 3-kinase catalytic subunit gamma isoform (P48736 whole entry, canonical isoform): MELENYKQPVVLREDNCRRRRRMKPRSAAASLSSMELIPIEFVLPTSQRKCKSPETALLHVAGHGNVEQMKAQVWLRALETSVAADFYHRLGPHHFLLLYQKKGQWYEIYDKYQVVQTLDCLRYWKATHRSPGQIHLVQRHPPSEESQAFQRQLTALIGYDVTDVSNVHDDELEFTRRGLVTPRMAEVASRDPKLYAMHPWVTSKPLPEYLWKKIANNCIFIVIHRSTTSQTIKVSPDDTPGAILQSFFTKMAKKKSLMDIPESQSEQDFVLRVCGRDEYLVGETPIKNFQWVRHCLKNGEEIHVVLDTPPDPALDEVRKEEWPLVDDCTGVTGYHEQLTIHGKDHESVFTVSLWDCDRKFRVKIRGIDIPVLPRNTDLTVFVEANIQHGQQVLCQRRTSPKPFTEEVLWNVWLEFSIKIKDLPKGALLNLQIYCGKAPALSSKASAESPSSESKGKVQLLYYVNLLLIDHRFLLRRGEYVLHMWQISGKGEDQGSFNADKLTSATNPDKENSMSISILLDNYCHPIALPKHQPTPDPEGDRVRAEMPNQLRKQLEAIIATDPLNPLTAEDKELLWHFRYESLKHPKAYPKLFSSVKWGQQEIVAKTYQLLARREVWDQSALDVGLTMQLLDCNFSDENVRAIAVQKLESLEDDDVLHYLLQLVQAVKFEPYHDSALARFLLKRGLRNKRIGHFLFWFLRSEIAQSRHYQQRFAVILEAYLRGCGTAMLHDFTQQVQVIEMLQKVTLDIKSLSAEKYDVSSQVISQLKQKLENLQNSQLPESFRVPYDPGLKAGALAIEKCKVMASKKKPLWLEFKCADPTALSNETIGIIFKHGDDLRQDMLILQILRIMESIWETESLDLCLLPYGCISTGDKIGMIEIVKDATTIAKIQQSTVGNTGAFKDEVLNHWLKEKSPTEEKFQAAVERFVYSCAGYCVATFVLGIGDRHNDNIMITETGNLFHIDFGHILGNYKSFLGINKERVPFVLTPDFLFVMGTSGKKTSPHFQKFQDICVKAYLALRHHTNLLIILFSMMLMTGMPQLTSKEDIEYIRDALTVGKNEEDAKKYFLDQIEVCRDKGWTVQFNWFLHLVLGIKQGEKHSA
Sequence of PI3-kinase p110-alpha/p85-alpha (P27986 whole entry): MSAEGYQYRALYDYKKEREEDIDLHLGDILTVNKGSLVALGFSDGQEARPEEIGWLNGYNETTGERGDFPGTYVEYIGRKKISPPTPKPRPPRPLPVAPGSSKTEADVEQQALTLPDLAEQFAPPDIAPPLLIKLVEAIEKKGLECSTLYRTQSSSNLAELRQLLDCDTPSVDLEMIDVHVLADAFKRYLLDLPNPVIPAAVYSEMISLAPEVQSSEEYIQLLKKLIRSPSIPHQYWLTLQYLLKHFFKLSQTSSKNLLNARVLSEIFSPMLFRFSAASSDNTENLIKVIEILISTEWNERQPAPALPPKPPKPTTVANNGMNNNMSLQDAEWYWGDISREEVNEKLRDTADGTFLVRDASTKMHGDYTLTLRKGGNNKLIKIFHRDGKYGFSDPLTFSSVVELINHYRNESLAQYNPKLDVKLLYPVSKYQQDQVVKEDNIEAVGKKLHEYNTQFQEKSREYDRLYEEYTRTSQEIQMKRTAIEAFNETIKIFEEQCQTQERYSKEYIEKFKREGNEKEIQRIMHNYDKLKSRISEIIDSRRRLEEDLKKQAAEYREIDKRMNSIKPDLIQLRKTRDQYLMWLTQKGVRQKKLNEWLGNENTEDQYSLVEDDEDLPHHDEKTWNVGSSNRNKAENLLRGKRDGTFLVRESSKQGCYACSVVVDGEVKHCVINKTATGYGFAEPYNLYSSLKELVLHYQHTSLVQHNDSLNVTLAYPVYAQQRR
Sequence of PI3-kinase p110-alpha/p85-alpha (P42336 whole entry): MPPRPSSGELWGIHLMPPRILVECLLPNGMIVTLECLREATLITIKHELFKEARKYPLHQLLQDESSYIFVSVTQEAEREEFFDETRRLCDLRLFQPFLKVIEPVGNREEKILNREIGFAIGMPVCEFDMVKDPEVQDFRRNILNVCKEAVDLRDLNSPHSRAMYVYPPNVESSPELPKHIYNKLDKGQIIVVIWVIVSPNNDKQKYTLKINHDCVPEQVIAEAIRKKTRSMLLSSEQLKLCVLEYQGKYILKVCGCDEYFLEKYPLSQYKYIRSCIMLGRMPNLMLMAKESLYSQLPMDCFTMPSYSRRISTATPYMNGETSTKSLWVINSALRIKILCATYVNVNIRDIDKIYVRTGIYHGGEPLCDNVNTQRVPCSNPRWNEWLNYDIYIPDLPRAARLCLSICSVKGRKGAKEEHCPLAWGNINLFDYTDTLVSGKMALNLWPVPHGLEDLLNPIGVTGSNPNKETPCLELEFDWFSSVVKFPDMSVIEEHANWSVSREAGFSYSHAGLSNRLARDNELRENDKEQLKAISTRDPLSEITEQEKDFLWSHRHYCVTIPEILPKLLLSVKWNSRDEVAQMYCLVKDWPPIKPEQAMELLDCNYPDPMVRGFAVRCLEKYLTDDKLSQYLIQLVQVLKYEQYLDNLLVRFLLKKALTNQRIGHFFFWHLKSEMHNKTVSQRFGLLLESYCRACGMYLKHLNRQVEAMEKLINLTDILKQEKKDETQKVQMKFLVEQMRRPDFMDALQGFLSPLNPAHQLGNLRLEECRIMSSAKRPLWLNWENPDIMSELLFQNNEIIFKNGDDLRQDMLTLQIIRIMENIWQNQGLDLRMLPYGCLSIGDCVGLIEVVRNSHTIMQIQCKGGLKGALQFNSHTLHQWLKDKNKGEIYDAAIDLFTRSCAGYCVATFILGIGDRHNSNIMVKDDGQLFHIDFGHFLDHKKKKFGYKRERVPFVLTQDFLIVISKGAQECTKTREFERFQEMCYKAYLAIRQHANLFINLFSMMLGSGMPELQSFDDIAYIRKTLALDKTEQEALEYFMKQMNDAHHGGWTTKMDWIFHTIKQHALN
Sequence of PI3-kinase p110-delta/p85-alpha (P27986 whole entry, one chain of several, canonical isoform): as the sequence (P27986 whole entry) above
Sequence of PI3K p110 beta/p85 alpha (P27986 whole entry): as above
Sequence of PI3K p110 beta/p85 alpha (P42338 whole entry): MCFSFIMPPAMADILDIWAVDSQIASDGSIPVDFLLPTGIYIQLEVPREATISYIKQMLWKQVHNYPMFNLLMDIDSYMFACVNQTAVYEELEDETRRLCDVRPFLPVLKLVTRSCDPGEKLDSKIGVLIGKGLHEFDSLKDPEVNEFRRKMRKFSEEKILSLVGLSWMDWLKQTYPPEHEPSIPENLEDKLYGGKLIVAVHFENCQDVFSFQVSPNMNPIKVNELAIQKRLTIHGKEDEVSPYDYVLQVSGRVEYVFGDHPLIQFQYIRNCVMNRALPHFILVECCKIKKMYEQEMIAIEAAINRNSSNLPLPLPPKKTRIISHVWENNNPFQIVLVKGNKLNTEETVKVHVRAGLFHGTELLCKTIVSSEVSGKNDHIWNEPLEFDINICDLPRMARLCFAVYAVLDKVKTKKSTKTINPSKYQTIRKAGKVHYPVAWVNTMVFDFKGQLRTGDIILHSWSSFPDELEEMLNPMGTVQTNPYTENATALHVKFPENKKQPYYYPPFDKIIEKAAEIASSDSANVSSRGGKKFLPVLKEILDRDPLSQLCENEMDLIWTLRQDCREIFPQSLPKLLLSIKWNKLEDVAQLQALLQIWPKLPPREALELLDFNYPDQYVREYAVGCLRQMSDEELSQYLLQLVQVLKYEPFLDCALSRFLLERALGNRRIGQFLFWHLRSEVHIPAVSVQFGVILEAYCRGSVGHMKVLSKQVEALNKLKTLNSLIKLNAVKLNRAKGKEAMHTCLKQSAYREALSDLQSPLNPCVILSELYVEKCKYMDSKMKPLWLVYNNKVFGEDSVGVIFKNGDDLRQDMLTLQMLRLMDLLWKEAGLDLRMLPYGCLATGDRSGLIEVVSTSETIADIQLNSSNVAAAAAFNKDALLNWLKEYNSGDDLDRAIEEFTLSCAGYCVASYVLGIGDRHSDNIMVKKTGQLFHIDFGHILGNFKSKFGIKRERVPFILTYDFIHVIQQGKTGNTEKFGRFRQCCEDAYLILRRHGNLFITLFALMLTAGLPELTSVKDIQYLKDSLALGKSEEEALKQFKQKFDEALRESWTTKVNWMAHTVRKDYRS

Consider `COc1cc(OC)c(/C=C/C(=O)c2c(OC)cc(OC)cc2OC)c(OC)c1`, for which the values for the Activity in data set [1] and in data set [2] were 67% and 68%, respectively.

Turning to `O=C(O)c1cc(=O)c2c(OCC(O)COc3cccc4oc(C(=O)O)cc(=O)c34)cccc2o1`, the result in the data set with Mus musculus [3] was inactive.

Take `COc1cc(OC)c(/C=C/C(=O)c2ccc(OC)c(OC)c2)c(OC)c1`: the values for the Activity in data set [1] and in data set [2] were 91% and 95%, respectively.

In the case of `COc1ccc(C(=O)/C=C/c2c(OC)cc(OC)cc2OC)c(OC)c1`, the Activity came to 76% in data set [1] and 86% in data set [2].

As for `COc1cccc(OC)c1C(=O)/C=C/c1ccc(C(F)(F)F)cc1`, the Activity worked out at 64% in data set [1] and 81% in data set [2].

On to `COc1ccc(/C=C/C(=O)c2cc(OC)c(OC)cc2OC)cc1O`, for which the values for the Activity in [1] and in [2] were 49% and 62%, respectively.

For the molecule `COc1cc(O)c(C(=O)/C=C/c2c(OC)cccc2OC)c(OC)c1`, the Activity in [1] turned out to be 81%; in data set [2] it was 85%.

As to `COc1cc(OC)c(C(=O)/C=C/c2cc(OC)c(OC)cc2OC)c(OC)c1`, the Activity was 53% in [1] and 51% in data set [2].

As to `COc1cc(OC)c(OC)cc1/C=C/C(=O)c1cc(OC)c(OC)cc1OC`, the Activity in [1] worked out at 66%; in data set [2], 70%.

Turning to `COc1cc(OC)c(C(=O)/C=C/c2ccc(OC)c(O)c2)c(OC)c1`, the Activity in [1] worked out at 40%; in data set [2], 54%.

As for `COc1cccc(OC)c1/C=C/C(=O)c1c(OC)cc(OC)c(C2CCN(C)CC2)c1O`, the Activity in data set [1] is 4%; in data set [2], 41%.

In the case of `COc1ccc(C(=O)/C=C/c2c(OC)cc(OC)cc2OC)c(O)c1`, the Activity came out at 95% in data set [1] and 91% in [2].

As for `C[C@@H]1C[C@H]2[C@@H]3CCC4=CC(=O)C=C[C@]4(C)[C@@]3(F)[C@@H](O)C[C@]2(C)[C@@]1(O)C(=O)CO`, the result in the data set with Mus musculus [4] and in the data set with Mus musculus [5] was Active.

Consider `COc1cc(OC)c(C(=O)/C=C/c2ccccc2OC)c(OC)c1`, for which the Activity came out at 48% in data set [1] and 65% in data set [2].

As for `COc1cc(OC)c(/C=C/C(=O)c2c(OC)cccc2OC)c(OC)c1`, the Activity in [1] was determined as 78%; in data set [2], 81%.

For the molecule `COc1cc(OC)c(/C=C/C(=O)c2c(OC)cc(N)cc2OC)c(OC)c1`, the Activity in data set [1] is 63%; in data set [2], 75%.

In the case of `CCC(=O)OCC(=O)[C@@]1(OC(=O)CC)[C@@H](C)C[C@H]2[C@@H]3CCC4=CC(=O)C=C[C@]4(C)[C@@]3(F)[C@@H](O)C[C@@]21C`, in the data set with Mus musculus [6], the outcome was Active.

Consider `COc1cccc(OC)c1/C=C/C(=O)c1c(OC)cccc1OC`, for which the Activity in data set [1] was 94%; in [2], 96%.

Turning to `COc1cc(OC)c(C2CCN(C)CC2)c(O)c1C(=O)/C=C/c1c(Cl)cccc1Cl`, the values for the Activity in [1] and in data set [2] were 6% and 24%, respectively.

Turning to `COc1ccc(C(=O)/C=C/c2cc(OC)c(OC)c(OC)c2)c(O)c1`, the Activity in data set [1] came out at 92%; in data set [2], 93%.

Turning to `COc1cccc(/C=C/C(=O)c2c(OC)cccc2OC)c1`, the values for the Activity in [1] and in [2] were 100% and 82%, respectively.

Turning to `COc1ccccc1/C=C/C(=O)c1cc(OC)c(OC)cc1OC`, the Activity in [1] turned out to be 55%; in data set [2] it was 65%.

Take `COc1cc(OC)c(/C=C/C(=O)c2c(OC)cc(OC)c(C3CCN(C)CC3)c2O)c(OC)c1`: the IC50 in data set [7] is greater than 10 µM; against PI3K p110 beta/p85 alpha it was greater than 10 µM; in [8], 7.2 µM; in data set [9], 10 µM. For the same molecule, the outcome in the data set on Mus musculus [10], in the data set on Mus musculus [11] and with Mus musculus [19] was Active. Further, the Activity result in the data set with Mus musculus [12] was “Dose-dependent effect”; with Mus musculus [13], “Dose-dependent effect”; in the data set with Mus musculus [14], “Dose-dependent effect”; in the data set on Mus musculus [20] it was “Non-Toxic”. Besides, the outcome in the data set on Mus musculus [15], with Mus musculus [16], with Mus musculus [17] and in the data set on Mus musculus [18] was inactive. For the same molecule, the inhibition entry in data set [21] and in [22] was “Dose-dependent effect” in each case.

What is called IC50 is the midpoint of a concentration-inhibition curve.
